Results taken from patent US11912693B2, “Compounds for modulating S1P1 activity and methods of using the same” (TREVENA, INC., priority 2017, dated 2024).

Tests used:
[1] = biological target: T1, human sphingosine-1-phosphate receptor 1 (S1P1) (Homo sapiens (Human), UniProt P21453); test: Inhibition of cAMP production (HTRF cAMP HiRange), S1P1 CHO-K1 cells; assay type: cell-based; conditions: for Emax: CHO-K1, efficacy (SPAN) normalized to fingolimod, read-out: hS1P1 cAMP SPAN
Procedure, shortened: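 CHO-K1 cells stably co-expressing human S1P1 (C-terminal Prolink tag) and EA-β-arrestin2 were grown in AssayComplete Media 6 at 37° C. and 5% CO2, plated, and incubated overnight. Agonist-driven inhibition of intracellular cAMP was read by TR-FRET with the HTRF cAMP HiRange kit on a PheraStar reader. Potency is pEC50, and efficacy (SPAN) is normalized to fingolimod.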
Target sequence in this assay (P21453 whole entry, looked up): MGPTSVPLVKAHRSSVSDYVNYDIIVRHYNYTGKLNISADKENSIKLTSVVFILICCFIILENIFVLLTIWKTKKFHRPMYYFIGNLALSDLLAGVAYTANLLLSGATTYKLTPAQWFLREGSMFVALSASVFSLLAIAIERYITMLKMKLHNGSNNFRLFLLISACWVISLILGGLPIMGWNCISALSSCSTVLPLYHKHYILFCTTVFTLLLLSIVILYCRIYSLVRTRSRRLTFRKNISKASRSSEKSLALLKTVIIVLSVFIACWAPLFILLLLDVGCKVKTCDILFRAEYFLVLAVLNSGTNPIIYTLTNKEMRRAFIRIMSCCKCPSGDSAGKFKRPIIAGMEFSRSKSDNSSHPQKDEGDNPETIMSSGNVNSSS

[2] = biological target: T1, human sphingosine-1-phosphate receptor 1 (S1P1); test: β-Arrestin2 recruitment assay (PathHunter), S1P1 CHO-K1 cells; assay type: cell-based; conditions: for Emax: CHO-K1, efficacy (SPAN) normalized to fingolimod, read-out: hS1P1 B-arrestin2 SPAN
Procedure, shortened: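 Enzyme-fragment complementation read-out: agonist-driven β-arrestin2 binding to ProLink-tagged human S1P1 in stable CHO-K1 cells restores β-galactosidase, measured 1 h at room temperature after a 60 min 37° C. compound incubation. Potency as pEC50, efficacy relative to fingolimod (SPAN).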
Target sequence in this assay (P21453 whole entry, looked up): as above
Target sequence in this assay (P32121 whole entry partner, looked up): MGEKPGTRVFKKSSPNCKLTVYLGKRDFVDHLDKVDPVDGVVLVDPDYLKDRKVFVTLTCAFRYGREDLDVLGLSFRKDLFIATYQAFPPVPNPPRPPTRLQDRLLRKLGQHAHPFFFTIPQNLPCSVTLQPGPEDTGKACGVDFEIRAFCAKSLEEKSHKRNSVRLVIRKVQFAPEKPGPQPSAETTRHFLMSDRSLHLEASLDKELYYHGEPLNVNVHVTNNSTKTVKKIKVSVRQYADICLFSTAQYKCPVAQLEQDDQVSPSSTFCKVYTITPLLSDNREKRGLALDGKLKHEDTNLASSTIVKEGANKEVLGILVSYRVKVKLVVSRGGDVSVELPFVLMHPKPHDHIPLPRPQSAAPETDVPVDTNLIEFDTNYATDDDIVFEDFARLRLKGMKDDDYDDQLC

[3] = inhibition of cAMP production, S1P1 CHO-K1 cells
[4] = β-arrestin2 recruitment, S1P1 CHO-K1 cells

| Emax [1] | hS1P1 cAMP pEC50 [1, 3] | Emax [2] | hS1P1 B-arrestin2 pEC50 [2, 4] | EC50 ([1]; inhibition of cAMP production, S1P1 CHO-K1 cells, read-out: hS1P1 cAMP pEC50 (converted)) | EC50 ([2]; β-arrestin2 recruitment, S1P1 CHO-K1 cells, read-out: hS1P1 B-arrestin2 pEC50 (converted)) | Compound |
| --- | --- | --- | --- | --- | --- | --- |
| < 75% | <6.5 | < 75% | <5 | – | – | CCCn1nnc2cc(-c3nc(-c4cccc(C(F)(F)F)c4)no3)ccc21 [Compound 242, 1-propyl-5-{3-[3-(trifluoromethyl)phenyl]-1,2,4-oxadiazol-5-yl}-1H-1,2,3-benzotriazole] |
| > 75% | <6.5 | > 75% | <5 | – | – | Cc1cccc(C)c1-c1noc(-c2ccc3c(c2)nnn3C(C)C)n1 [Compound 243, 3-(2,6-dimethylphenyl)-5-(1-isopropyl-1H-benzo[d][1,2,3]triazol-5-yl)-1,2,4-oxadiazole] |
| > 75% | >6.5 | > 75% | >5 | – | – | CC(C)n1nnc2cc(-c3nc(-c4ccncc4)no3)ccc21 [Compound 244, 1-(propan-2-yl)-5-[3-(pyridin-4-yl)-1,2,4-oxadiazol-5-yl]-1H-1,2,3-benzotriazole] |
| > 75% | <6.5 | > 75% | >5 | – | – | Cc1ccccc1-c1noc(-c2ccc3c(c2)nnn3C2CCCCC2)n1 [Compound 245, 1-cyclohexyl-5-[3-(2-methylphenyl)-1,2,4-oxadiazol-5-yl]-1H-1,2,3-benzotriazole] |
| – | >6.5 | – | >5 | – | – | CC(C)Oc1ccc(-c2nc(-c3ccc4c(c3)nnn4C(C)C)no2)cc1C(F)(F)F [Compound 246, 5-(4-isopropoxy-3-(trifluoromethyl)phenyl)-3-(1-isopropyl-1H-benzo[d][1,2,3]triazol-5-yl)-1,2,4-oxadiazole] |
| < 75% | <6.5 | < 75% | <5 | – | – | Cc1oc(-c2ccc3c(c2)nnn3C(C)C)nc1-c1ccccc1 [Compound 247, 5-(5-methyl-4-phenyl-1,3-oxazol-2-yl)-1-(propan-2-yl)-1H-1,2,3-benzotriazole] |
| – | <6.5 | – | <5 | – | – | CC(C)n1nnc2cc(-c3noc(-c4ccc(-c5ccccc5)cc4)n3)ccc21 [Compound 248, 5-([1,1′-biphenyl]-4-yl)-3-(1-isopropyl-1H-benzo[d][1,2,3]triazol-5-yl)-1,2,4-oxadiazole] |
| – | <6.5 | – | <5 | – | – | CC(C)n1nnc2cc(-c3nc(-c4cncnc4)no3)ccc21 [Compound 249, 1-(propan-2-yl)-5-[3-(pyrimidin-5-yl)-1,2,4-oxadiazol-5-yl]-1H-1,2,3-benzotriazole] |
| < 75% | <6.5 | < 75% | <5 | – | – | COc1ccc(-c2coc(-c3ccc4c(c3)nnn4C(C)C)n2)cc1 [Compound 250, 5-[4-(4-methoxyphenyl)-1,3-oxazol-2-yl]-1-(propan-2-yl)-1H-1,2,3-benzotriazole] |
| < 75% | <6.5 | < 75% | <5 | – | – | COc1cccc(OC)c1-c1noc(-c2ccc3c(c2)nnn3C(C)C)n1 [Compound 251, 3-(2,6-dimethoxyphenyl)-5-(1-isopropylbenzotriazol-5-yl)-1,2,4-oxadiazole] |
| > 75% | – | > 75% | – | < 0.316 µM | < 10 µM | Cc1ccsc1-c1noc(-c2ccc3c(c2)nnn3C(C)(C)C)n1 [Compound 253, 1-tert-butyl-5-[3-(3-methylthiophen-2-yl)-1,2,4-oxadiazol-5-yl]-1H-1,2,3-benzotriazole] |

The next lines start with the compound.

| Compound | Emax [1] | hS1P1 cAMP pEC50 [1, 3] | Emax [2] | hS1P1 B-arrestin2 pEC50 [2, 4] | EC50 ([1]; inhibition of cAMP production, S1P1 CHO-K1 cells, read-out: hS1P1 cAMP pEC50 (converted)) | EC50 ([2]; β-arrestin2 recruitment, S1P1 CHO-K1 cells, read-out: hS1P1 B-arrestin2 pEC50 (converted)) |
| --- | --- | --- | --- | --- | --- | --- |
| COc1ccc(-c2noc(-c3ccc4c(c3)nnn4C(C)C)n2)cc1OC [Compound 230, 3-(3,4-dimethoxyphenyl)-5-(1-isopropyl-1H-benzo[d][1,2,3]triazol-5-yl)-1,2,4-oxadiazole] | < 75% | <6.5 | < 75% | <5 | – | – |
| COc1ccccc1-c1noc(-c2ccc3c(c2)nnn3C2CCOCC2)n1 [Compound 231, 5-[3-(2-methoxyphenyl)-1,2,4-oxadiazol-5-yl]-1-(oxan-4-yl)-1H-1,2,3-benzotriazole] | < 75% | <6.5 | < 75% | <5 | – | – |
| Fc1ccc(-c2noc(-c3ccc4c(c3)nnn4C3CCCC3)n2)cc1 [Compound 232, 1-cyclopentyl-5-[3-(4-fluorophenyl)-1,2,4-oxadiazol-5-yl]-1H-1,2,3-benzotriazole] | < 75% | <6.5 | < 75% | <5 | – | – |
| Brc1ccccc1-c1noc(-c2ccc3c(c2)nnn3C2CCOCC2)n1 [Compound 233, 5-[3-(2-bromophenyl)-1,2,4-oxadiazol-5-yl]-1-(oxan-4-yl)-1H-1,2,3-benzotriazole] | < 75% | <6.5 | < 75% | <5 | – | – |
| Cc1ccc(-c2nc(-c3ccc4c(c3)nnn4C3CCCC3)no2)cc1 [Compound 235, 3-(1-cyclopentyl-1H-benzo[d][1,2,3]triazol-5-yl)-5-(p-tolyl)-1,2,4-oxadiazole] | – | <6.5 | – | <5 | – | – |
| Cc1ccc(-c2noc(-c3ccc4c(c3)nnn4C(C)C)n2)cn1 [Compound 236, 5-[3-(6-methylpyridin-3-yl)-1,2,4-oxadiazol-5-yl]-1-(propan-2-yl)-1H-1,2,3-benzotriazole] | < 75% | <6.5 | > 75% | <5 | – | – |
| CSc1ccc(-c2nc(-c3ccc4c(c3)nnn4C3CCCC3)no2)cc1 [Compound 237, 3-(1-cyclopentyl-1H-benzo[d][1,2,3]triazol-5-yl)-5-(4-(methylthio)phenyl)-1,2,4-oxadiazole] | < 75% | <6.5 | < 75% | <5 | – | – |
| OCCn1nnc2cc(-c3noc(-c4ccccc4Br)n3)ccc21 [Compound 238, 2-(5-(5-(2-bromophenyl)-1,2,4-oxadiazol-3-yl)-1H-benzo[d][1,2,3]triazol-1-yl)ethanol] | < 75% | <6.5 | < 75% | <5 | – | – |
| Cc1ccsc1-c1noc(-c2ccc3c(c2)nnn3CC2CC2)n1 [Compound 239, 1-(cyclopropylmethyl)-5-[3-(3-methylthiophen-2-yl)-1,2,4-oxadiazol-5-yl]-1H-1,2,3-benzotriazole] | < 75% | <6.5 | < 75% | <5 | – | – |
| CC(C)n1nnc2cc(-c3noc(-c4ccccc4OC(F)(F)F)n3)ccc21 [Compound 240, 3-(1-isopropyl-1H-benzo[d][1,2,3]triazol-5-yl)-5-(2-(trifluoromethoxy)phenyl)-1,2,4-oxadiazole] | > 75% | <6.5 | > 75% | <5 | – | – |
| CC(C)n1nnc2cc(-c3nc(-c4ccccn4)no3)ccc21 [Compound 241, 1-(propan-2-yl)-5-[3-(pyridin-2-yl)-1,2,4-oxadiazol-5-yl]-1H-1,2,3-benzotriazole] | > 75% | <6.5 | > 75% | <5 | – | – |
